In brackets after ≈: the same amount, converted by molar mass. Read-outs that look alike come from different tables or passages of the source.
Experiments:
CDK9 = target: T1, CDK9 (Homo sapiens, UniProt P50750+Q96SW2); assay: CDK9 degradation potency (DC50) of VIP152-based degraders; format: cell-based; conditions: VIP152-based series
T1 construct: endogenous in cells
Description: (§1) Through amide coupling using I-ethyl-3-carbodiimide hydrochloride (EDC.HCl), the alkynyl derivatives of 4.16, 4.29 and 4.30 were synthesized. Using these VIP152-derivatives, degraders 4.31, 4.33 and 4.34 were synthesized using click chemistry. Degrader 4.32 was also synthesized using amide coupling conditions with (1-[Bis([…])methylene]-1H-1,2,3-triazolo[4,5-b]pyridinium 3-oxide hexafluorophosphate (HATU) and the carboxylic acid 4.28. Scheme 7 illustrates the synthesis of this initial series. The series was evaluated for cytotoxicity against MOLM13 cells (IC50) and for their CDK9 degradation potency (DC50). The results are provided in Table 3.

MOLM13 cells = assay: Cytotoxicity against MOLM13 cells; format: cell-based; conditions: MOLM13 cells, read-out: IC50
Description: as §1

[1] = Chromatographic log D determination (log k′80); format: physicochemical; conditions: chromatographic log D, PLRP-S column, pH 7.72
Description: Chromatographic Log D Determination. Test samples were prepared from 10 mM stock solutions in DMSO, to make 122 μM solutions in acetonitrile. Retention times were determined on a Shimadzu High Performance Liquid Chromatography (HPLC) system with Agilent PLRP-S column, 100 Å, 5 um particle size, 50×4.6 mm (part no.: PL1512-1500) with 1 mL/min flow rate. A 65 mM aqueous solution of ammonium acetate was prepared in water and diluted with acetonitrile to give 0.1% ammonium acetate 20:80 acetonitrile solution with pH 7.72. Eluents were detected with UV spectrophotometry at 337 nm. As a standard set, the retention times of β-estradiol, nifedipine, quinoline, phenol and 2-nitrophenol were determined (log k′80) and the dead time was extrapolated based on the reported log k′80 values originally reported by Caron et. al (log k′80*). The average value of the dead time for the standard set was 0.3001 minutes. Therefore, for consistency, 0.3 minutes was used as the dead time for all test samples. Experiments were performed in triplicate with a maximum percent standard deviation of 6.85%.

Kinetic solubility assay = conditions: kinetic solubility, PBS pH 7.4; for solubility at 1.5 h: phosphate buffered saline, pH 7.4, aqueous buffer, kinetic from dmso stock, Solubility (μM)
Description: Kinetic Solubility Assay. Kinetic solubility (KS) was measured according to Millipore protocol PC2445 EN00. Test compounds were weighed and diluted with DMSO to 10 mM. From the stock solutions as well as blank (100% DMSO) was taken 17.5 μL and diluted to 500 μM with 332.5 μL of 100 mM phosphate Buffered Saline (PPBS) at pH 7.4 in a 96-well quartz plate. From the 500 μM solutions was taken 150 μL and dispensed into a 96-well Millipore filter plate (Product number: MSSLBPC10). In the quartz plate, serial dilutions were performed down to 0.5 μM using the 100 mM PBS solution, leaving 100 μL of each test sample at 11 different concentrations, representing standards. These steps were performed in triplicate, at minimum, for each test compound. Both plates were shaken on an orbital shaker at 150 rpm for 1.5 hours. The contents of the filter plate were filtered and 100 μL of the filtrate from each well was dispensed into the quartz plate containing standards. The quartz plate was then analyzed using a UV plate reader where absorbance was measured at the relevant wavelength for each compound. After blank subtraction, for each test sample, solubility was determined based on the optical density of filtered samples and the equations derived from the corresponding linear standard curve.

[2] = Homo sapiens, MOLM-13, cytotoxicity

T1 sequence (P50750 whole entry): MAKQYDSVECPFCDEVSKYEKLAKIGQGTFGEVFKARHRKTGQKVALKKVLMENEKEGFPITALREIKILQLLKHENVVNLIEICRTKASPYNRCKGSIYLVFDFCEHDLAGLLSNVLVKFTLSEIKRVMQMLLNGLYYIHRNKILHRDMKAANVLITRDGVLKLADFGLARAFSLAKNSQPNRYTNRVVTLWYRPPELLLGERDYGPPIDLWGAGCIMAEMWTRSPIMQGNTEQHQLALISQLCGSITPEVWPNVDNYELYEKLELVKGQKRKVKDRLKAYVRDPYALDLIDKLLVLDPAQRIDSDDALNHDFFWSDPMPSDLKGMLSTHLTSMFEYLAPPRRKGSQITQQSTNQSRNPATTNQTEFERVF
T1 sequence (O60563 whole entry partner): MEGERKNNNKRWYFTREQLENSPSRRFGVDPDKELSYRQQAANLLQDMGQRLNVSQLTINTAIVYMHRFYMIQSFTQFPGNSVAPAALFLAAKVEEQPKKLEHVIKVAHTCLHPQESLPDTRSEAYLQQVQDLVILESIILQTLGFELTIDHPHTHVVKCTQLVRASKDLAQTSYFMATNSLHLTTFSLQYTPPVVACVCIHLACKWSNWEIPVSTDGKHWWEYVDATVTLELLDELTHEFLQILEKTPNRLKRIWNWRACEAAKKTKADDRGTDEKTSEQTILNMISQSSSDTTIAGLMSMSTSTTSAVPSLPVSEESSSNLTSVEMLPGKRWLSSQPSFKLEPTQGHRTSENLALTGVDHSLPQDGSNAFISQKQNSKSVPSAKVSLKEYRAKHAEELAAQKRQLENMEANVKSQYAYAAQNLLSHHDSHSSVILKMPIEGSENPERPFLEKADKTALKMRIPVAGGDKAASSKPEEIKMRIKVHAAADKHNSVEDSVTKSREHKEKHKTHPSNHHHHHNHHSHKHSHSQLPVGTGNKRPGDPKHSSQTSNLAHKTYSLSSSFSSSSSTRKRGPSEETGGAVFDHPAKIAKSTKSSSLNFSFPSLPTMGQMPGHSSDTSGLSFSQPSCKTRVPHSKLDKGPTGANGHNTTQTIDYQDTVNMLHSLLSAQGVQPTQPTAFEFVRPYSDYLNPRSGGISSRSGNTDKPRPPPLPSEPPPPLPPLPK
T1 sequence (Q96SW2 whole entry): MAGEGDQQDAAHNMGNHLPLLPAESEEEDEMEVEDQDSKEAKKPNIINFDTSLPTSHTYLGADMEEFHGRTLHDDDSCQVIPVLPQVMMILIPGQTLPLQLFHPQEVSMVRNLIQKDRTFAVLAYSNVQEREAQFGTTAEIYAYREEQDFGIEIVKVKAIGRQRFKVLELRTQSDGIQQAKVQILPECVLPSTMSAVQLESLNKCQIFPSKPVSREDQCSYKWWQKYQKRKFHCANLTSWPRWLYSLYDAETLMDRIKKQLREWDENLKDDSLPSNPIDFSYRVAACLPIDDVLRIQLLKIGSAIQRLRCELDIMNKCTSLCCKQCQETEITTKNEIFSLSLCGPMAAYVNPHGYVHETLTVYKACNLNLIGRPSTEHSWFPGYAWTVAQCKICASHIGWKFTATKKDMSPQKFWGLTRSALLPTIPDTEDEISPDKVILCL
T1 sequence (Q16531 whole entry partner): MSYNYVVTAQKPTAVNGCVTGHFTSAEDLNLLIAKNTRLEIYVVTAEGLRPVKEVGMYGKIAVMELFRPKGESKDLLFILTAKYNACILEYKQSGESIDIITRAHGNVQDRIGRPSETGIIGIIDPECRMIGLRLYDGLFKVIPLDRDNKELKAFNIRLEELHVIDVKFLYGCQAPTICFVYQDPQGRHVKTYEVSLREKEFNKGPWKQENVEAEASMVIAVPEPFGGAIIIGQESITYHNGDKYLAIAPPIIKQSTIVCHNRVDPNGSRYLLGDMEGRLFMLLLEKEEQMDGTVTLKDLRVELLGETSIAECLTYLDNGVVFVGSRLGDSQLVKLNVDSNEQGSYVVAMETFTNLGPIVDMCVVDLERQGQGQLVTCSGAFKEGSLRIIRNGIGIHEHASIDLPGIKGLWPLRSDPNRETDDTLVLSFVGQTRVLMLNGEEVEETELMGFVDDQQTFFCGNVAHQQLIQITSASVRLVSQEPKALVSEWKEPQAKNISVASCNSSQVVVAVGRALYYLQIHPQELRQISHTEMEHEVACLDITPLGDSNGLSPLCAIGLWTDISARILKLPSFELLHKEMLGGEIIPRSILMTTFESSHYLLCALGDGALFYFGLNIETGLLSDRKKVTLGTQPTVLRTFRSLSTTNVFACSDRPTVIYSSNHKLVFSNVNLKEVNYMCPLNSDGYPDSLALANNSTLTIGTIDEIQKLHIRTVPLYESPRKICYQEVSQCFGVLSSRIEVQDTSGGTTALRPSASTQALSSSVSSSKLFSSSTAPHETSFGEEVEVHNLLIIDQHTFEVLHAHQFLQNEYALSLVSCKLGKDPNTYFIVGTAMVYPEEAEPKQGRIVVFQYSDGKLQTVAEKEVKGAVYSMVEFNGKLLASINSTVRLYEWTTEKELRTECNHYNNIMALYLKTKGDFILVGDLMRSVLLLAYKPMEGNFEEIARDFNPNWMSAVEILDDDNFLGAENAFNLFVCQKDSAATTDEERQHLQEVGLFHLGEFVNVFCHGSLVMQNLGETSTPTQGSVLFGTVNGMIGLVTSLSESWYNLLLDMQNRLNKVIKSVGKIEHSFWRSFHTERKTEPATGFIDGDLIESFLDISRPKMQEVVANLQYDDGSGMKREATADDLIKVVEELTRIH

Compound	DC50 (CDK9) [nM]	IC50 (MOLM13 cells; cytotoxicity) [nM]	logk′80 [1]	Solubility (Kinetic solubility assay) [µM]	IC50 (MOLM13 cells; [2]) [nM]	solubility at 1.5 h (Kinetic solubility assay) [µM]
COc1cc(F)ccc1-c1cc(Nc2cc(CS(C)(=O)=NC(=O)CN3CCC(c4cn(C5CN(c6cccc7c6C(=O)N(C6CCC(=O)NC6=O)C7=O)C5)nn4)CC3)ccn2)ncc1F (stereo not drawn) [Compound 4.60, 2-(4-(1-(1-(2-(2,6-dioxopiperidin-3-yl)-1,3-dioxoisoindolin-4-yl)azetidin-3-yl)-1H-1,2,3-triazol-4-yl)piperidin-1-yl)-N-(((2-((5-fluoro-4-(4-fluoro-2-methoxyphenyl)pyridin-2-yl)amino)pyridin-4-yl)methyl)(methyl)(oxo)-16-sulfaneylidene)acetamide]	1660	1910	0.16	4.1 (≈ 3.72 µg/mL)	–	–
COc1cc(F)ccc1-c1cc(Nc2cc(CS(C)(=O)=NC(=O)CN3CCC(c4cn(CC5CCN(c6cccc7c6C(=O)N(C6CCC(=O)NC6=O)C7=O)CC5)nn4)CC3)ccn2)ncc1F (stereo not drawn) [Compound 4.76, 2-{[4-[1-({1-[2-(2,6-dioxopiperidin-3-yl)-1,3-dioxo-2,3-dihydro-1H-isoindol-4-yl]piperidin-4-yl}methyl)-1H-1,2,3-triazol-4-yl]piperidin-1-yl}-N-{[2-{[5-fluoro-4-(4-fluoro-2-methoxyphenyl)pyridin-2-yl]amino}pyridin-4-yl)methyl](methyl)oxoλ^6-sulfanylidene}acetamide]	240	300	0.19	4.7 (≈ 4.47 µg/mL)	–	–
COc1cc(F)ccc1-c1cc(Nc2cc(CS(C)(=O)=NC(=O)C3CCCN(Cc4cn(CC(=O)N5CCC(C#Cc6cccc7c6C(=O)N(C6CCC(=O)NC6=O)C7=O)CC5)nn4)C3)ccn2)ncc1F (stereo not drawn) [Compound 4.75, 1-({1-[2-(4-{2-[2-(2,6-dioxopiperidin-3-yl)-1,3-dioxo-2,3-dihydro-1H-isoindol-4-yl]ethynyl}piperidin-1-yl)-2-oxoethyl]-1H-1,2,3-triazol-4-yl}methyl)-N-{[1 (2-{[5-fluoro-4-(4-fluoro-2-methoxyphenyl)pyridin-2-yl]amino}pyridin-4-yl)methyl](methyl)oxo-λ^6-sulfanylidene}piperidine-3-carboxamide]	1620	–	0.18	–	1480	4.8 (≈ 4.81 µg/mL)
COc1cc(F)ccc1-c1cc(Nc2cc(CS(C)(=O)=NC(=O)CN3CCC(c4cn(C5CN(C(=O)CNc6cccc7c6C(=O)N(C6CCC(=O)NC6=O)C7=O)C5)nn4)CC3)ccn2)ncc1F (stereo not drawn) [Compound 4.59, 2-(4-(1-(1-((2-(2,6-dioxopiperidin-3-yl)-1,3-dioxoisoindolin-4-yl)glycyl)azetidin-3-yl)-1H-1,2,3-triazol-4-yl)piperidin-1-yl)-N-(((2-((5-fluoro-4-(4-fluoro-2-methoxyphenyl)pyridin-2-yl)amino)pyridin-4-yl)methyl)(methyl)(oxo)-16-sulfaneylidene)acetamide]	110	210	0.09	5.0 (≈ 4.83 µg/mL)	–	–
COc1cc(F)ccc1-c1cc(Nc2cc(CS(C)(=O)=NC(=O)C3CCCN(Cc4cn(CC(=O)N5CCN(CC#Cc6cccc7c6C(=O)N(C6CCC(=O)NC6=O)C7=O)CC5)nn4)C3)ccn2)ncc1F (stereo not drawn) [Compound 4.64, 1-((1-(2-(4-(3-(2-(2,6-dioxopiperidin-3-yl)-1,3-dioxoisoindolin-4-yl)prop-2-yl-1-yl)piperazin-1-yl)-2-oxoethyl)-1H-1,2,3-triazol-4-yl)methyl)-N-(((2-((5-fluoro-4-(4-fluoro-2-methoxyphenyl)pyridin-2-yl)amino)pyridin-4-yl)methyl)(methyl)(oxo)-16-sulfaneylidene)piperidine-3-carboxamide]	780	850	0.14	33.0 (≈ 33.6 µg/mL)	–	–
COc1cc(F)ccc1-c1cc(Nc2cc(CS(C)(=O)=NC(=O)CCC(=O)N3CC(N4CCC(Cn5cc(COc6cccc7c6C(=O)N(C6CCC(=O)NC6=O)C7=O)nn5)CC4)C3)ccn2)ncc1F (stereo not drawn) [Compound 4.91]	260	–	0.09	–	590	3.8 (≈ 3.78 µg/mL)
COc1cc(F)ccc1-c1cc(Nc2cc(CS(C)(=O)=NC(=O)CN3CCN(Cc4cn(CCCOc5cccc6c5C(=O)N(C5CCC(=O)NC5=O)C6=O)nn4)CC3)ccn2)ncc1F (stereo not drawn) [Compound 4.39, 2-(4-((1-(3-((2-(2,6-dioxopiperidin-3-yl)-1,3-dioxoisoindolin-4-yl)oxy)propyl)-1H-1,2,3-triazol-4-yl)methyl)piperazin-1-yl)-N-(((2-((5-fluoro-4-(4-fluoro-2-methoxyphenyl)pyridin-2-yl)amino)pyridin-4-yl)methyl)(methyl)(oxo)-16-sulfaneylidene)acetamide]	640	–	0.10	–	830	26.5 (≈ 24.5 µg/mL)
1-((1-(1-((2-(2,6-dioxopiperidin-3-yl)-1,3-dioxoisoindolin-4-yl)glycyl)azetidin-3-yl)-1H-1,2, 3-triazol-4-yl)methyl)-N-(((2-((5-fluoro˜4-(4-fluoro-2-methoxyphenyl)pyridin-2-yl)amino)pyridin-4-yl)methyl)(methyl)(oxo)-16-sulfaneylidene)piperidine-3-carboxamide [Compound 4.63]	460	550	0.19	10.8	–	–
COc1cc(F)ccc1-c1cc(Nc2cc(CS(C)(=O)=NC(=O)C3CCCN(Cc4cn(CC(=O)N5CCN(CCCc6cccc7c6C(=O)N(C6CCC(=O)NC6=O)C7=O)CC5)nn4)C3)ccn2)ncc1F (stereo not drawn) [Compound 4.73, 1-({1-[2-(4-{3-[2-(2,6-dioxopiperidin-3-yl)-1,3-dioxo-2,3-dihydro-1H-isoindol-4-yl]propyl}piperazin-1-yl)-2-oxoethyl]-1H-1,2,3-triazol-4-yl}methyl)-N-{[1 (2-{[5-fluoro-4-(4-fluoro-2-methoxyphenyl)pyridin-2-yl]amino}pyridin-4-yl)methyl](methyl)oxo-λ^6-sulfanylidene}piperidine-3-carboxamide]	2630	–	0.13	–	700	3.5 (≈ 3.57 µg/mL)
COc1cc(F)ccc1-c1cc(Nc2cc(CS(C)(=O)=NC(=O)CCC(=O)N3CC(N4CCC(Cn5cc(CNC(=O)CNc6cccc7c6C(=O)N(C6CCC(=O)NC6=O)C7=O)nn5)CC4)C3)ccn2)ncc1F (stereo not drawn) [Compound 4.90, 4-{3-[4-({4-[(2˜ {[2˜ (2,6-dioxopiperidin-3-yl)-1,3-dioxo-2,3-dihydro-1H-isoindol-4-yl]amino}acetamido)methyl]-1H-1,2,3-triazol-1-yl}methyl)piperidin-1-yl]azetidin-1-yl}-N-{[(2-{[5-fluoro-4-(4-fluoro-2-methoxyphenyl)pyridin-2-yl]amino}pyridin-4-yl)methyl](methyl)oxo-λ^6-sulfanylidene}-4-oxobutanamide]	900	–	0.07	–	1380	8.3 (≈ 8.72 µg/mL)
COc1cc(F)ccc1-c1cc(Nc2cc(CS(C)(=O)=NC(=O)CN3CCN(Cc4cn(CC(=O)N5CCN(CC#Cc6cccc7c6C(=O)N(C6CCC(=O)NC6=O)C7=O)CC5)nn4)CC3)ccn2)ncc1F (stereo not drawn) [Compound 4.51, 2-(4-((1-(2-(4-(3-(2-(2,6-dioxopiperidin-3-yl)-1,3-dioxoisoindolin-4-yl)prop-2-yn-1-yl)piperazin-1-yl)-2-oxoethyl)-1H-1,2,3-triazol-4-yl)methyl)piperazin-1-yl)-N-(((2-((5-fluoro-4-(4-fluoro-2-methoxyphenyl)pyridin-2-yl)amino)pyridin-4-yl)methyl)(methyl)(oxo)-16-sulfaneylidene)acetamide]	370	1540	0.09	14.8 (≈ 15.3 µg/mL)	–	–
COc1cc(F)ccc1-c1cc(Nc2cc(CS(C)(=O)=NC(=O)CCc3cn(CC4CCN(C5CN(C(=O)CNc6cccc7c6C(=O)N(C6CCC(=O)NC6=O)C7=O)C5)CC4)nn3)ccn2)ncc1F (stereo not drawn) [Compound 4.89, 3-(1-((1-(1-((2-(2,6-dioxopiperidin-3-yl)-1,3-dioxoisoindolin-4-yl)glycyl)azetidin-3-yl)piperidin-4-yl)methyl)-1H-1,2,3-triazol-4-yl)-N-(((2-((5-fluoro-4-(4-fluoro-2-methoxyphenyl)pyridin-2-yl)amino)pyridin-4-yl)methyl)(methyl) (oxo)-26-sulfaneylidene) propanamide]	80	–	0.09	–	170	1.8 (≈ 1.79 µg/mL)

Source: patent US20250236607A1, “CYCLIN-DEPENDENT KINASE 9 (CDK9) DEGRADERS AND METHODS OF USING THEREOF” (OHIO STATE INNOVATION FOUNDATION, priority 2022, published 2025)
